In patent US7387798B2, “Method and composition for resuscitation” (priority 2004, dated 2008):
Entries after “also recorded” stand apart in the source; their conditions may differ.

Test system: not listed separately
Experiment: Neural protective effect of colloid osmotic agents and Polypeptides (stated, no method given)
Conditions: general statement, no experiment described

Molecule | protecting the CNS tissue (neural protective effect)
Dextran | ineffective; also recorded: do not confer neuroprotective effect
albumin | effective
Hetastarch | ineffective
Collagen | effective

Test system: cultured neurons
Experiment: not given
Conditions: continuous application, 100 μM; cited from earlier work

Molecule | axonal transport of membrane-bound organelles in anterograde and retrograde directions
Nc1ncnc2c1ncn2[C@@H]1O[C@H](COP(=O)(O)OP(=O)(O)OP(=O)(O)O)[C@@H](O)[C@H]1O [ATP, Adenosine 5′-triphosphate] | significantly increased
O=c1ccn([C@@H]2O[C@H](COP(=O)(O)OP(=O)(O)OP(=O)(O)O)[C@@H](O)[C@H]2O)c(=O)[nH]1 [Uridine 5′-triphosphate] | effect similar to ATP
